Earlier results on 1 molecule are cited in EP4174079B1 (UNIWERSYTET JAGIELLONSKI, priority 2021, dated 2023).

The conditions of this data set: compared with cisplatin.

For the molecule `[Cl][Pt][Cl].c1cn[nH]c1.c1cn[nH]c1` [Cis-PtCl2(pzH)2], the antitumour activity result is recorded as “significantly lower than cisplatin”.
